Assay results from the supplement of paper PMC10307832.

Columns and labels:
Assay in all cases: relative viability (nuclei count vs DMSO), 5 days (fraction); higher = more cells survive
[1] = compound: O=C(O)c1ccc2c(c1)nc(Nc1cccc(Cl)c1)c1ccncc12 [Silmitasertib] + C[C@@H](Oc1cc(-c2cnn(C3CCNCC3)c2)cnc1N)c1c(Cl)ccc(F)c1Cl [Crizotinib] (partner 1 µM)
Method in brief: (§1)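 Each reported value is a median over duplicate plates. It expresses relative viability: treated-well nuclei count divided by vehicle-well nuclei count. Lung cancer cell lines in 1536-well plates were dosed by pin tool a day after seeding, alone with one drug or with a fixed anchor-drug dose plus five library-drug doses (not always all listed) in √10 steps, and nuclei were counted after 5 days.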

[2] = compound: O=C(O)c1ccc2c(c1)nc(Nc1cccc(Cl)c1)c1ccncc12 [Silmitasertib] + Cc1nc(NC(=O)N2CCC[C@H]2C(N)=O)sc1-c1ccnc(C(C)(C)C(F)(F)F)c1 [Alpelisib] (partner 2 µM)
Method in brief: as §1

[3] = compound: O=C(O)c1ccc2c(c1)nc(Nc1cccc(Cl)c1)c1ccncc12 [Silmitasertib] + N=C(N)NC(=N)NCCc1ccccc1 [Phenformin] (partner 250 µM)
Method in brief: as §1

[4] = compound: O=C(O)c1ccc2c(c1)nc(Nc1cccc(Cl)c1)c1ccncc12 [Silmitasertib] + COc1cc2c(Oc3ccc(NC(=O)C4(C(=O)Nc5ccc(F)cc5)CC4)cc3F)ccnc2cc1OCCCN1CCOCC1 [Foretinib] (partner 0.25 µM)
Method in brief: as §1

[5] = compound: O=C(O)c1ccc2c(c1)nc(Nc1cccc(Cl)c1)c1ccncc12 [Silmitasertib] + COc1cccc2cc(-c3nc([C@H]4CC[C@H](C(=O)O)CC4)n4ncnc(N)c34)[nH]c12 [OSI-027] (partner 0.5 µM)
Method in brief: as §1

Cell Line | relative viability ([1]; first compound 0.04 µM) | relative viability ([1]; first compound 0.4 µM) | relative viability ([1]; first compound 1.265 µM) | relative viability ([1]; first compound 4 µM) | relative viability ([2]; first compound 0.04 µM) | relative viability ([2]; first compound 0.4 µM) | relative viability ([2]; first compound 1.265 µM) | relative viability ([2]; first compound 4 µM) | relative viability ([3]; first compound 0.04 µM) | relative viability ([3]; first compound 0.4 µM) | relative viability ([3]; first compound 1.265 µM) | relative viability ([3]; first compound 4 µM) | relative viability ([4]; first compound 0.04 µM) | relative viability ([4]; first compound 0.4 µM) | relative viability ([4]; first compound 1.265 µM) | relative viability ([4]; first compound 4 µM) | relative viability ([5]; first compound 0.04 µM) | relative viability ([5]; first compound 0.4 µM) | relative viability ([5]; first compound 1.265 µM) | relative viability ([5]; first compound 4 µM)
SW 1573 | 0.952 | 0.707 | 0.734 | 0.625 | 0.758 | 0.588 | 0.723 | 0.504 | 0.465 | 0.319 | 0.336 | 0.387 | 0.882 | 0.801 | 0.744 | 0.202 | 0.648 | 0.616 | 0.548 | 0.319
UMC-11 | 0.604 | 0.683 | 0.56 | 0.324 | 1.03 | 0.994 | 1 | 0.627 | 0.336 | 0.319 | 0.341 | 0.286 | 1.19 | 1.16 | 1.11 | 0.619 | 0.491 | 0.485 | 0.438 | 0.402
